Measurements as given in patent US20020137929A1, “1 - (3-heterocyclylphenyl) isothiourea, -isourea, -guanidine and -amidine herbicidal agents” (Intellectual Property Department, BASF Aktiengesellschaft, priority 1998, published 2002).

Key:
[1] = tested on: CASOB (Sicklepod); assay: Preemergence herbicidal evaluation; format: in vivo, Cassia obtusifolia; details: rated 4-5 weeks after treatment
Summary of the method: (§1)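 Greenhouse preemergence test: seed-soil mix sown on ~1 inch soil; aqueous acetone spray at equivalent of ~0.0156–0.500 kg/ha; greenhouse-held and watered; scored 0–9 visually at 4–5 weeks.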

[2] = tested on: ORYSAT (Rice, Tebonnet); assay: Postemergence herbicidal evaluation; format: in vivo, Oryza sativa, (L.) Tebonnet; details: postemergence
Summary of the method: (§2)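 Rate range approx. 0.0156–0.500 kg/ha. Foliar application at 40 psi to ~2-week seedlings; surfactant 0.5% TWEEN 20 in 50/50 acetone/water. Evaluation 4–5 wk post-treatment by 0–9 visual injury score, means of replicate tests.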

[3] = tested on: ABUTH (Velvetleaf); assay: Postemergence herbicidal evaluation; format: in vivo, Abutilon theophrasti; details: postemergence
Summary of the method: as §2

[4] = tested on: ZEAMX (Corn, Field); assay: Postemergence herbicidal evaluation; format: in vivo, Zea mays; details: postemergence
Summary of the method: as §2

[5] = tested on: AMBEL (Ragweed, Common); assay: Postemergence herbicidal evaluation; format: in vivo, Ambrosia artemisifolia; details: postemergence
Summary of the method: as §2

[6] = tested on: CHEAL (Lambsquarters, Common); assay: Postemergence herbicidal evaluation; format: in vivo, Chenopodium album; details: postemergence
Summary of the method: as §2

[7] = tested on: CYPIR (Rice Flatsedge); assay: Postemergence weed control under flooded paddy conditions; format: in vivo, Cyperus iria; details: postemergence weeds, 3-4 weeks after treatment
Summary of the method: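 Weeds 3 to 5 cm tall and rice seedlings at the 1.5 to 2.5 leaf stage were flooded, with water held 1.5 to 3 cm above the soil. Compounds in 50/50 v/v aqueous/acetone went into the flood water at about 0.0313 to 0.500 kg/ha. Visual 0-9 ratings versus control were made 3 to 4 weeks later.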

[8] = tested on: CHEAL (Lambsquarters, Common); assay: Preemergence herbicidal evaluation; format: in vivo, Chenopodium album; details: rated 4-5 weeks after treatment
Summary of the method: as §1

[9] = tested on: ECHCG (Barnyardgrass); assay: Postemergence herbicidal evaluation; format: in vivo, Echinochloa crus-galli; details: postemergence
Summary of the method: as §2

[10] = tested on: GLXMAW (Soybean, Williams); assay: Postemergence herbicidal evaluation; format: in vivo, Glycine max, (L.) Merr. cv Williams; details: postemergence
Summary of the method: as §2

[11] = tested on: AMBEL (Ragweed, Common); assay: Preemergence herbicidal evaluation; format: in vivo, Ambrosia artemisifolia; details: rated 4-5 weeks after treatment
Summary of the method: as §1

[12] = tested on: GALAP (Galium); assay: Preemergence herbicidal evaluation; format: in vivo, Galium aparine; details: rated 4-5 weeks after treatment
Summary of the method: as §1

CCOC(=O)CN1C(=O)C(Cc2ccccc2)SC1=Nc1cc(-n2c(=O)cc(C(F)(F)F)n(C)c2=O)c(F)cc1Cl (stereo not shown) [Compound 24, Ethyl 5-benzyl-2-{{2-chloro-5-[3,6-dihydro-3-methyl-2,6-dioxo-4-(trifluoromethyl)-1(2H)-pyrimidinyl]-4-fluorophenyl}imino}-4-oxo-3-thiazolidineacetate]
CASOB preemergence herbicidal rating ([1]; rate 0.0625 kg/ha): 0.0 | CASOB preemergence herbicidal rating ([1]; rate 0.1250 kg/ha): 0.0 | CASOB preemergence herbicidal rating ([1]; rate 0.2500 kg/ha): 0.0 | ORYSAT herbicidal rating ([2]; rate 0.0158 kg/ha): 2.5 | ORYSAT herbicidal rating ([2]; rate 0.0315 kg/ha): 3.0 | ORYSAT herbicidal rating ([2]; rate 0.0630 kg/ha): 3.0 | ABUTH herbicidal rating ([3]; rate 0.0158 kg/ha): 9.0 | ABUTH herbicidal rating ([3]; rate 0.0315 kg/ha): 9.0 | ABUTH herbicidal rating ([3]; rate 0.0630 kg/ha): 9.0 | ZEAMX herbicidal rating ([4]; rate 0.0158 kg/ha): 4.0 | ZEAMX herbicidal rating ([4]; rate 0.0315 kg/ha): 4.5 | ZEAMX herbicidal rating ([4]; rate 0.0630 kg/ha): 5.5 | AMBEL herbicidal rating ([5]; rate 0.0158 kg/ha): 2.0 | AMBEL herbicidal rating ([5]; rate 0.0315 kg/ha): 3.0 | AMBEL herbicidal rating ([5]; rate 0.0630 kg/ha): 9.0 | CHEAL herbicidal rating ([6]; rate 0.0158 kg/ha): 2.0 | CHEAL herbicidal rating ([6]; rate 0.0315 kg/ha): 4.0 | CHEAL herbicidal rating ([6]; rate 0.0630 kg/ha): 9.0 | Herbicidal rating CYPIR ([7]; rate 0.0313 kg/ha): 0.0 | Herbicidal rating CYPIR ([7]; rate 0.0625 kg/ha): 0.0 | Herbicidal rating CYPIR ([7]; rate 0.1250 kg/ha): 0.0 | Herbicidal rating CYPIR ([7]; rate 0.2500 kg/ha): 0.0 | CHEAL preemergence herbicidal rating ([8]; rate 0.0625 kg/ha): 9.0 | CHEAL preemergence herbicidal rating ([8]; rate 0.1250 kg/ha): 9.0 | CHEAL preemergence herbicidal rating ([8]; rate 0.2500 kg/ha): 9.0 | ECHCG herbicidal rating ([9]; rate 0.0158 kg/ha): 0.0 | ECHCG herbicidal rating ([9]; rate 0.0315 kg/ha): 0.0 | ECHCG herbicidal rating ([9]; rate 0.0630 kg/ha): 0.0 | GLXMAW herbicidal rating ([10]; rate 0.0158 kg/ha): 4.0 | GLXMAW herbicidal rating ([10]; rate 0.0315 kg/ha): 5.0 | GLXMAW herbicidal rating ([10]; rate 0.0630 kg/ha): 5.5 | AMBEL preemergence herbicidal rating ([11]; rate 0.0625 kg/ha): 0.0 | AMBEL preemergence herbicidal rating ([11]; rate 0.1250 kg/ha): 0.0 | AMBEL preemergence herbicidal rating ([11]; rate 0.2500 kg/ha): 2.0 | GALAP preemergence herbicidal rating ([12]; rate 0.0625 kg/ha): 0.0 | GALAP preemergence herbicidal rating ([12]; rate 0.1250 kg/ha): 0.0 | GALAP preemergence herbicidal rating ([12]; rate 0.2500 kg/ha): 4.0

CCOC(=O)CN1C(=O)CN(C)C1=Nc1cc(-n2c(=O)cc(C(F)(F)F)n(C)c2=O)c(F)cc1Cl [Compound 25, Ethyl 2-{{2-chloro-5-[3,6-dihydro-3-methyl-2,6-dioxo-4-(trifluoromethyl)-1(2H)-pyrimidinyl]-4-fluorophenyl}imino}-3-methyl-5-oxo-1-imidazolidineacetate]
Preemergence herbicidal rating CASOB ([1]; rate 0.0156 kg/ha): 0.0 | Preemergence herbicidal rating CASOB ([1]; rate 0.0313 kg/ha): 0.0 | CASOB preemergence herbicidal rating ([1]; rate 0.0625 kg/ha): 0.0 | CASOB preemergence herbicidal rating ([1]; rate 0.1250 kg/ha): 2.0 | CASOB preemergence herbicidal rating ([1]; rate 0.2500 kg/ha): 3.0 | ORYSAT herbicidal rating ([2]; rate 0.0156 kg/ha): 0.5 | ORYSAT herbicidal rating ([2]; rate 0.0313 kg/ha): 2.0 | ORYSAT herbicidal rating ([2]; rate 0.0625 kg/ha): 2.0 | ABUTH herbicidal rating ([3]; rate 0.0156 kg/ha): 9.0 | ABUTH herbicidal rating ([3]; rate 0.0313 kg/ha): 9.0 | ABUTH herbicidal rating ([3]; rate 0.0625 kg/ha): 9.0 | ZEAMX herbicidal rating ([4]; rate 0.0156 kg/ha): 3.5 | ZEAMX herbicidal rating ([4]; rate 0.0313 kg/ha): 5.5 | ZEAMX herbicidal rating ([4]; rate 0.0625 kg/ha): 7.0 | AMBEL herbicidal rating ([5]; rate 0.0156 kg/ha): 3.0 | AMBEL herbicidal rating ([5]; rate 0.0313 kg/ha): 4.0 | AMBEL herbicidal rating ([5]; rate 0.0625 kg/ha): 9.0 | CHEAL herbicidal rating ([6]; rate 0.0156 kg/ha): 2.0 | CHEAL herbicidal rating ([6]; rate 0.0313 kg/ha): 5.0 | CHEAL herbicidal rating ([6]; rate 0.0625 kg/ha): 9.0 | Herbicidal rating CYPIR ([7]; rate 0.0313 kg/ha): 0.0 | Herbicidal rating CYPIR ([7]; rate 0.0625 kg/ha): 0.0 | Herbicidal rating CYPIR ([7]; rate 0.1250 kg/ha): 0.0 | Herbicidal rating CYPIR ([7]; rate 0.2500 kg/ha): 0.0 | Preemergence herbicidal rating CHEAL ([8]; rate 0.0156 kg/ha): 7.0 | Preemergence herbicidal rating CHEAL ([8]; rate 0.0313 kg/ha): 9.0 | CHEAL preemergence herbicidal rating ([8]; rate 0.0625 kg/ha): 9.0 | CHEAL preemergence herbicidal rating ([8]; rate 0.1250 kg/ha): 9.0 | CHEAL preemergence herbicidal rating ([8]; rate 0.2500 kg/ha): 9.0 | ECHCG herbicidal rating ([9]; rate 0.0156 kg/ha): 0.0 | ECHCG herbicidal rating ([9]; rate 0.0313 kg/ha): 0.0 | ECHCG herbicidal rating ([9]; rate 0.0625 kg/ha): 0.0 | GLXMAW herbicidal rating ([10]; rate 0.0156 kg/ha): 7.0 | GLXMAW herbicidal rating ([10]; rate 0.0313 kg/ha): 7.5 | GLXMAW herbicidal rating ([10]; rate 0.0625 kg/ha): 8.0 | Preemergence herbicidal rating AMBEL ([11]; rate 0.0156 kg/ha): 0.0 | Preemergence herbicidal rating AMBEL ([11]; rate 0.0313 kg/ha): 2.0 | AMBEL preemergence herbicidal rating ([11]; rate 0.0625 kg/ha): 9.0 | AMBEL preemergence herbicidal rating ([11]; rate 0.1250 kg/ha): 9.0 | AMBEL preemergence herbicidal rating ([11]; rate 0.2500 kg/ha): 9.0 | Preemergence herbicidal rating GALAP ([12]; rate 0.0156 kg/ha): 0.0 | Preemergence herbicidal rating GALAP ([12]; rate 0.0313 kg/ha): 0.0 | GALAP preemergence herbicidal rating ([12]; rate 0.0625 kg/ha): 0.0 | GALAP preemergence herbicidal rating ([12]; rate 0.1250 kg/ha): 0.0 | GALAP preemergence herbicidal rating ([12]; rate 0.2500 kg/ha): 0.0

Cn1c(C(F)(F)F)cc(=O)n(-c2cc(N=C3SCC(=O)N3Cc3ccccc3)c(Cl)cc2F)c1=O [Compound 26]
Preemergence herbicidal rating CASOB ([1]; rate 0.0156 kg/ha): 0.0 | Preemergence herbicidal rating CASOB ([1]; rate 0.0313 kg/ha): 0.0 | Preemergence herbicidal rating CASOB ([1]; rate 0.0625 kg/ha): 0.0 | Preemergence herbicidal rating CASOB ([1]; rate 0.1250 kg/ha): 0.0 | Preemergence herbicidal rating CASOB ([1]; rate 0.2500 kg/ha): 0.0 | ORYSAT herbicidal rating ([2]; rate 0.0156 kg/ha): 0.5 | ORYSAT herbicidal rating ([2]; rate 0.0313 kg/ha): 1.0 | ORYSAT herbicidal rating ([2]; rate 0.0625 kg/ha): 1.5 | ABUTH herbicidal rating ([3]; rate 0.0156 kg/ha): 9.0 | ABUTH herbicidal rating ([3]; rate 0.0313 kg/ha): 9.0 | ABUTH herbicidal rating ([3]; rate 0.0625 kg/ha): 9.0 | ZEAMX herbicidal rating ([4]; rate 0.0156 kg/ha): 3.5 | ZEAMX herbicidal rating ([4]; rate 0.0313 kg/ha): 4.5 | ZEAMX herbicidal rating ([4]; rate 0.0625 kg/ha): 5.5 | AMBEL herbicidal rating ([5]; rate 0.0156 kg/ha): 9.0 | AMBEL herbicidal rating ([5]; rate 0.0313 kg/ha): 8.0 | AMBEL herbicidal rating ([5]; rate 0.0625 kg/ha): 9.0 | CHEAL herbicidal rating ([6]; rate 0.0156 kg/ha): 9.0 | CHEAL herbicidal rating ([6]; rate 0.0313 kg/ha): 9.0 | CHEAL herbicidal rating ([6]; rate 0.0625 kg/ha): 9.0 | Herbicidal rating CYPIR ([7]; rate 0.0313 kg/ha): 2.0 | Herbicidal rating CYPIR ([7]; rate 0.0625 kg/ha): 4.0 | Herbicidal rating CYPIR ([7]; rate 0.1250 kg/ha): 7.0 | Herbicidal rating CYPIR ([7]; rate 0.2500 kg/ha): 9.0 | Preemergence herbicidal rating CHEAL ([8]; rate 0.0156 kg/ha): 3.0 | Preemergence herbicidal rating CHEAL ([8]; rate 0.0313 kg/ha): 9.0 | Preemergence herbicidal rating CHEAL ([8]; rate 0.0625 kg/ha): 9.0 | Preemergence herbicidal rating CHEAL ([8]; rate 0.1250 kg/ha): 9.0 | Preemergence herbicidal rating CHEAL ([8]; rate 0.2500 kg/ha): 9.0 | ECHCG herbicidal rating ([9]; rate 0.0156 kg/ha): 0.0 | ECHCG herbicidal rating ([9]; rate 0.0313 kg/ha): 0.0 | ECHCG herbicidal rating ([9]; rate 0.0625 kg/ha): 0.0 | GLXMAW herbicidal rating ([10]; rate 0.0156 kg/ha): 5.5 | GLXMAW herbicidal rating ([10]; rate 0.0313 kg/ha): 5.5 | GLXMAW herbicidal rating ([10]; rate 0.0625 kg/ha): 6.0 | Preemergence herbicidal rating AMBEL ([11]; rate 0.0156 kg/ha): 0.0 | Preemergence herbicidal rating AMBEL ([11]; rate 0.0313 kg/ha): 0.0 | Preemergence herbicidal rating AMBEL ([11]; rate 0.0625 kg/ha): 0.0 | Preemergence herbicidal rating AMBEL ([11]; rate 0.1250 kg/ha): 5.0 | Preemergence herbicidal rating AMBEL ([11]; rate 0.2500 kg/ha): 5.0 | Preemergence herbicidal rating GALAP ([12]; rate 0.0156 kg/ha): 0.0 | Preemergence herbicidal rating GALAP ([12]; rate 0.0313 kg/ha): 0.0 | Preemergence herbicidal rating GALAP ([12]; rate 0.0625 kg/ha): 0.0 | Preemergence herbicidal rating GALAP ([12]; rate 0.1250 kg/ha): 9.0 | Preemergence herbicidal rating GALAP ([12]; rate 0.2500 kg/ha): 9.0
